This is an account of results in patent US11208386B2, “Inhibitors of protein arginine deiminases (PADs) and methods of preparation and use thereof” (University of Massachusetts, priority 2016, dated 2021).

Common to all, as to type: biochemical
In test [1] the target is T1, PAD4 (Homo sapiens, UniProt Q9UM07).
T1 construct: made in house
As to the kind of experiment: Inactivation kinetics, PAD4. The conditions noted are these: for kinact/KI: a: single kobs determined, b: from a linear fit; for Fold PAD4 Selectivity: kinact/KI relative to least inhibited isozyme (1.0). As for the experimental part:
(§1) Inactivation kinetic parameters were determined by incubating PAD1, 2, or 4 (2.0 μM) or PAD3 (5.0 μM) in a pre-warmed (10 min; 37° C.) inactivation mixture (50 mM HEPES, 10 mM CaCl2, and 2 mM DTT, pH 7.6, with a final volume of 60 μL) containing various concentrations of inhibitor. Aliquots were removed at various time points and added to a pre-warmed (10 min, 37° C.) reaction mixture (50 mM HEPES, 50 mM NaCl, 10 mM CaC2, 2 mM DTT, and 10 mM BAEE or 10 mM BAA in the case of PAD3; pH 7.6). After 15 min, reactions were quenched in liquid nitrogen and citrulline production quantified using the COLDER assay. […] In Vitro Labeling of PADs with “Clickable” Probes BB-F-Yne (5u), BB-Cl-Yne (5v) and BIFYne (5w)

The target of test [2] is T2, PAD2 (Homo sapiens, UniProt Q9Y2J8).
T2 construct: made in house
T2 sequence (Q9Y2J8 whole entry): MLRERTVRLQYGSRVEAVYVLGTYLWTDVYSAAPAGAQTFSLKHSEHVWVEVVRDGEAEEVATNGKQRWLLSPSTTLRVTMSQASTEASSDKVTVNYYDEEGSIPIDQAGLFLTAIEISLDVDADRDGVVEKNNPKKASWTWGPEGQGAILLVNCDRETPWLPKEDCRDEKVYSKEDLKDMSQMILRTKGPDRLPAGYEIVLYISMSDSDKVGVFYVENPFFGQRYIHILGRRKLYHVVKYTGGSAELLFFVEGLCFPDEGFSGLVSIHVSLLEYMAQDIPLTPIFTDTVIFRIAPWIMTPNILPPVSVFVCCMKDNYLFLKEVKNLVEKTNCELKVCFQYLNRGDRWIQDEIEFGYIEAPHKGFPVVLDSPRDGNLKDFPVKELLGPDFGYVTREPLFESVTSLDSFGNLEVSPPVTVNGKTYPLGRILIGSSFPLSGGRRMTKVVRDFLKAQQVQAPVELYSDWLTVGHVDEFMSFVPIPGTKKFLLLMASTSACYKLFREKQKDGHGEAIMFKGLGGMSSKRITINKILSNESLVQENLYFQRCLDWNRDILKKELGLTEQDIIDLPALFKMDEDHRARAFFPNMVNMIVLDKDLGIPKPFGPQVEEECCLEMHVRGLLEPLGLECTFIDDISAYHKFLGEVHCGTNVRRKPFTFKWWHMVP
Put plainly: Inactivation kinetics, PAD2. The conditions noted are these: for kinact/KI: a: single kobs determined, b: from a linear fit, other footnotes: from kinact and KI; for Fold PAD2 Selectivity: kinact/KI relative to least inhibited isozyme (1.0). As for the experimental part: as §1

The target of test [3] is T3, PAD1 (Homo sapiens, UniProt Q9ULC6).
T3 construct: made in house
T3 sequence (Q9ULC6 1-663): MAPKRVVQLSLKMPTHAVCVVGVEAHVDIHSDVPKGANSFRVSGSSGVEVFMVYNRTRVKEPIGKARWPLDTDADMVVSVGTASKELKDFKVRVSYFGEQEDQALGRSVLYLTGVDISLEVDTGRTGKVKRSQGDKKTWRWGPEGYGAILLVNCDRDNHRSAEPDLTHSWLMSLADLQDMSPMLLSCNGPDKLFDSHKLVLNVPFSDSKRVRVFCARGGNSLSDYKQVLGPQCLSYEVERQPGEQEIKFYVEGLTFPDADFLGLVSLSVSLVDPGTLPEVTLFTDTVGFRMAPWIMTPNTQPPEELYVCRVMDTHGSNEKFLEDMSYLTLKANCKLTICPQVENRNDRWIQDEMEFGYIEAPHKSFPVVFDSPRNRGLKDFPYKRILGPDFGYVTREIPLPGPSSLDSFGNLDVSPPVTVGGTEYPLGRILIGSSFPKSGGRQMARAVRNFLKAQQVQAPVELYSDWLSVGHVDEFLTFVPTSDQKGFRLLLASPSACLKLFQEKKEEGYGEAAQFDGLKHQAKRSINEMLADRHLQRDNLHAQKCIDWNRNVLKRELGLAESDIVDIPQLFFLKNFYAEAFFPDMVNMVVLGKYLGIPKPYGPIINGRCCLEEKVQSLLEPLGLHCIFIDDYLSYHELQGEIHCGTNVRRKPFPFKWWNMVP
As to the kind of experiment: Inactivation kinetics, PAD1. The conditions noted are these: for kinact/KI: a: single kobs determined, b: from a linear fit; for Fold PAD1 Selectivity: kinact/KI relative to least inhibited isozyme (1.0). As for the experimental part: as §1

The target of test [4] is T4, PAD3 (Homo sapiens, UniProt Q9ULW8).
T4 construct: made in house
T4 sequence (Q9ULW8 1-664): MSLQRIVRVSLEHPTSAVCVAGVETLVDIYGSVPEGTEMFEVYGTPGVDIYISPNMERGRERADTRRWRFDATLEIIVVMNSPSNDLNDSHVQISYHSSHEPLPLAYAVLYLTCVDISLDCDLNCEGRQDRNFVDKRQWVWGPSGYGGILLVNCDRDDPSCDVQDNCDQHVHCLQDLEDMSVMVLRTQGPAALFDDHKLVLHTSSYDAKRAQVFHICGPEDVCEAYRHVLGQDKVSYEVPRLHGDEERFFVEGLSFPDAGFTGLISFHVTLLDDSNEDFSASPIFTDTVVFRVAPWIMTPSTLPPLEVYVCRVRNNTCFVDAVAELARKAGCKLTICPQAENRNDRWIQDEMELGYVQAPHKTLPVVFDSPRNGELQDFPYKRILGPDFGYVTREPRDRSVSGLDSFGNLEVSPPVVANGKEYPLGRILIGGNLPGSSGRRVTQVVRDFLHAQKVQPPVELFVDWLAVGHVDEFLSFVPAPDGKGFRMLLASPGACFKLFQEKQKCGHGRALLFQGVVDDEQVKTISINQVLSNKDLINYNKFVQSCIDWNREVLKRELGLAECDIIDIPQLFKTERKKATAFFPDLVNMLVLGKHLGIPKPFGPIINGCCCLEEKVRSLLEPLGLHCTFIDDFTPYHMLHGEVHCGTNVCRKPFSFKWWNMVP
Put plainly: Inactivation kinetics, PAD3. The conditions noted are these: for kinact/KI: a: single kobs determined; for Fold PAD3 Selectivity: kinact/KI relative to least inhibited isozyme (1.0). The method, then: as §1

T1 sequence (Q9UM07 whole entry): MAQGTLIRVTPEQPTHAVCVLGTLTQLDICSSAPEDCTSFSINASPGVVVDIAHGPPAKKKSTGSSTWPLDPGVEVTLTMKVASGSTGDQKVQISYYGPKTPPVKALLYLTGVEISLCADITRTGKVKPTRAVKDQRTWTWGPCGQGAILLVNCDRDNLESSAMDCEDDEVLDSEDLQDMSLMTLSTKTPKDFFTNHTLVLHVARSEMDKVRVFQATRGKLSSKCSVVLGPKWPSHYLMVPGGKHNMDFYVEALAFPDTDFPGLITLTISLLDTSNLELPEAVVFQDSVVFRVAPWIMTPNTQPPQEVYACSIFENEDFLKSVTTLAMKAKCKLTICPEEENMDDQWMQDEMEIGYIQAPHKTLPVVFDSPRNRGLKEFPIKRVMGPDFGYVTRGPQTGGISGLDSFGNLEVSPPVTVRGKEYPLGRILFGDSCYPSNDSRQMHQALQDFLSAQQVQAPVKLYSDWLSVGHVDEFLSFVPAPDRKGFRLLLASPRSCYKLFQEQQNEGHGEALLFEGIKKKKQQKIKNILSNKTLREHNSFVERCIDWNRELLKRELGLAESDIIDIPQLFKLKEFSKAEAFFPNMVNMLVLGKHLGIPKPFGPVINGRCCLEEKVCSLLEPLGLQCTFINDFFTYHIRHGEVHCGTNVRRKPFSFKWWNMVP

For the compound `COc1cccc2c1nc([C@H](CCCNC(=N)CF)NC(=O)c1cccc3c1C(=O)N(C)C3)n2C` [8a′], in test [1], the inactivation efficiency (kinact/KI) (commonly the maximal inactivation rate divided by the concentration that gives half of it) is 38.3 M⁻¹ s⁻¹ and the “Fold PAD4 Selectivity” value is recorded as 1.1 fold. Also, in test [2] (PAD2, table footnote), the Ki came to 12.8 µM and the kinact (as a rule, the maximal first-order rate at which the target is inactivated) was 0.0455 s⁻¹. Moreover, in test [2], the kinact/KI was 3540 M⁻¹ s⁻¹ and the “Fold PAD2 Selectivity” value came to 106 fold. For the same compound, in test [3], the kinact/KI was 996 M⁻¹ s⁻¹ and the “Fold PAD1 Selectivity” value is on record as 30 fold. Moreover, in test [4], the kinact/KI is 33.5 M⁻¹ s⁻¹ and the “Fold PAD3 Selectivity” value is recorded as 1.0 fold.
As for `COc1cccc2c1nc([C@H](CCCNC(=N)CCl)NC(=O)c1cccc3c1C(=O)N(C)C3)n2C` [8b′], in test [1], the inactivation efficiency (kinact/KI) was 106 M⁻¹ s⁻¹ and the “Fold PAD4 Selectivity” value is 1.0 fold. Further, in test [2], the kinact/KI is 1160 M⁻¹ s⁻¹ and the “Fold PAD2 Selectivity” value is recorded as 11 fold. In test [3], the kinact/KI is 719 M⁻¹ s⁻¹ and the “Fold PAD1 Selectivity” value is given as 6.8 fold. Moreover, in test [4], the kinact/KI is 228 M⁻¹ s⁻¹ and the “Fold PAD3 Selectivity” value stood at 2.2 fold.
Consider `N=C(CF)NCCC[C@H](NC(=O)c1ccccc1)c1nc2ccccc2[nH]1` [Compound 5a, N1-benzoyl-N5-(2-fluoro-1-iminoethyl)-1-(1H-benzo[d]imidazol-2-yl)-L-ornithine], for which, in test [1], the kinact/KI was 142 M⁻¹ s⁻¹ and the “Fold PAD4 Selectivity” value is 18 fold. Moreover, in test [2], the kinact/KI was 7.92 M⁻¹ s⁻¹ and the “Fold PAD2 Selectivity” value is reported as 1.0 fold. Besides, in test [3], the kinact/KI was 75 M⁻¹ s⁻¹ and the “Fold PAD1 Selectivity” value is reported as 9.5 fold. Also, in test [4], the kinact/KI was 15 M⁻¹ s⁻¹ and the “Fold PAD3 Selectivity” value was 1.9 fold.
Turning to `N=C(CCl)NCCC[C@H](NC(=O)c1ccccc1)c1nc2ccccc2[nH]1` [Compound 5b, N1-benzoyl-N5-(2-chloro-1-iminoethyl)-1-(1H-benzo[d]imidazol-2-yl)-L-ornithine], in test [1], the kinact/KI is 254 M⁻¹ s⁻¹ and the “Fold PAD4 Selectivity” value came to 31 fold. Besides, in test [2], the kinact/KI is 8.33 M⁻¹ s⁻¹ and the “Fold PAD2 Selectivity” value worked out at 1.0 fold. In test [3], the kinact/KI is 132 M⁻¹ s⁻¹ and the “Fold PAD1 Selectivity” value came out at 16 fold. In test [4], the kinact/KI was 163 M⁻¹ s⁻¹ and the “Fold PAD3 Selectivity” value is listed as 20 fold.
For the compound `N=C(CF)NCCC[C@H](NC(=O)c1ccc2ccccc2c1)c1nc2ccccc2[nH]1` [Compound 5c], in test [1], the kinact/KI was 108 M⁻¹ s⁻¹ and the “Fold PAD4 Selectivity” value is 8.3 fold. Moreover, in test [2], the kinact/KI was 13.1 M⁻¹ s⁻¹ and the “Fold PAD2 Selectivity” value was 1.0 fold. Also, in test [3], the kinact/KI was 25 M⁻¹ s⁻¹ and the “Fold PAD1 Selectivity” value amounted to 1.9 fold. In addition, in test [4], the kinact/KI is 46.7 M⁻¹ s⁻¹ and the “Fold PAD3 Selectivity” value is recorded as 3.6 fold.
In the case of `N=C(CCl)NCCC[C@H](NC(=O)c1ccc2ccccc2c1)c1nc2ccccc2[nH]1` [Compound 5d], in test [1], the kinact/KI was 167 M⁻¹ s⁻¹ and the “Fold PAD4 Selectivity” value turned out to be 3.6 fold. Also, in test [2], the kinact/KI is 71.2 M⁻¹ s⁻¹ and the “Fold PAD2 Selectivity” value is given as 1.5 fold. In addition, in test [3], the kinact/KI is 46.7 M⁻¹ s⁻¹ and the “Fold PAD1 Selectivity” value is 1.0 fold. Further, in test [4], the kinact/KI was 165 M⁻¹ s⁻¹ and the “Fold PAD3 Selectivity” value turned out to be 3.5 fold.
For the compound `N=C(CF)NCCC[C@H](NC(=O)c1ccc(-c2ccccc2)cc1)c1nc2ccccc2[nH]1` [Compound 5e, N1-[1,4′-Phenyl]benzol-N5-(2-fluoro-1-iminoethyl)-1-(1H-benzo[d]imidazol-2-yl)-L-ornithine], in test [1], the kinact/KI is 62.5 M⁻¹ s⁻¹ and the “Fold PAD4 Selectivity” value was found to be 4.2 fold. Besides, in test [2], the kinact/KI was 20 M⁻¹ s⁻¹ and the “Fold PAD2 Selectivity” value turned out to be 1.3 fold. Moreover, in test [3], the kinact/KI was 15 M⁻¹ s⁻¹ and the “Fold PAD1 Selectivity” value is 1.0 fold. Moreover, in test [4], the kinact/KI was 56.7 M⁻¹ s⁻¹ and the “Fold PAD3 Selectivity” value turned out to be 3.8 fold.
Regarding `Cn1c([C@H](CCCNC(=N)CF)NC(=O)c2ccc(-c3ccccc3)cc2)nc2ccccc21` [Compound 5g, N1-[1,4′-Phenyl]benzoyl-N5-(2-fluoro-1-iminoethyl)-1-(1-methyl-benzo[d]imidazol-2-yl)-L-ornithine], in test [1], the kinact/KI was 7.5 M⁻¹ s⁻¹ and the “Fold PAD4 Selectivity” value stood at 1.0 fold. Moreover, in test [2], the kinact/KI is 13.7 M⁻¹ s⁻¹ and the “Fold PAD2 Selectivity” value stood at 1.8 fold. For the same compound, in test [3], the kinact/KI was 21.3 M⁻¹ s⁻¹ and the “Fold PAD1 Selectivity” value came to 2.8 fold. Also, in test [4], the kinact/KI was 26.7 M⁻¹ s⁻¹ and the “Fold PAD3 Selectivity” value worked out at 3.6 fold.
For `Cn1c([C@H](CCCNC(=N)CCl)NC(=O)c2ccc(-c3ccccc3)cc2)nc2ccccc21` [Compound 5h, N1-[1,4′-Phenyl]benzol-N5-(2-chloro-1-iminoethyl)-1-(1-methyl-benzo[d]imidazol-2-yl)-L-ornithine], in test [1], the kinact/KI is 51.8 M⁻¹ s⁻¹ and the “Fold PAD4 Selectivity” value came out at 1.3 fold. Also, in test [2], the kinact/KI is 40.5 M⁻¹ s⁻¹ and the “Fold PAD2 Selectivity” value came out at 1.0 fold. Moreover, in test [3], the kinact/KI is 112 M⁻¹ s⁻¹ and the “Fold PAD1 Selectivity” value stood at 2.8 fold. In test [4], the second-order inactivation constant (kinact/KI) was 100 M⁻¹ s⁻¹ and the “Fold PAD3 Selectivity” value is reported as 2.5 fold.
Turning to `CCn1c([C@H](CCCNC(=N)CF)NC(=O)c2ccc(-c3ccccc3)cc2)nc2ccccc21` [Compound 5i, N1-[1,4′-Phenyl]benzoyl-N5-(2-fluoro-1-iminoethyl)-1-(1-ethyl-benzo[d]imidazol-2-yl)-L-omithine], in test [1], the kinact/KI was 0.5 M⁻¹ s⁻¹ and the “Fold PAD4 Selectivity” value came to 1.0 fold. Also, in test [2], the kinact/KI was 19.3 M⁻¹ s⁻¹ and the “Fold PAD2 Selectivity” value came to 39 fold. For the same compound, in test [3], the kinact/KI is 12.7 M⁻¹ s⁻¹ and the “Fold PAD1 Selectivity” value came to 25 fold. In test [4], the kinact/KI is 30 M⁻¹ s⁻¹ and the “Fold PAD3 Selectivity” value turned out to be 60 fold.
For `CCn1c([C@H](CCCNC(=N)CCl)NC(=O)c2ccc(-c3ccccc3)cc2)nc2ccccc21` [Compound 5j, N1-[1,4′-Phenyl]benzoyl-N5-(2-chloro-1-iminoethyl)-1-(1-ethyl-benzo[d]imidazol-2-yl)-L-ornithine], in test [1], the kinact/KI was 69.2 M⁻¹ s⁻¹ and the “Fold PAD4 Selectivity” value turned out to be 1.0 fold. In addition, in test [2], the kinact/KI was 80.8 M⁻¹ s⁻¹ and the “Fold PAD2 Selectivity” value is given as 1.2 fold. Moreover, in test [3], the kinact/KI was 84.3 M⁻¹ s⁻¹ and the “Fold PAD1 Selectivity” value was determined as 1.2 fold. Moreover, in test [4], the kinact/KI is 284 M⁻¹ s⁻¹ and the “Fold PAD3 Selectivity” value is on record as 4.1 fold.
For the compound `CC(C)n1c([C@H](CCCNC(=N)CF)NC(=O)c2ccc(-c3ccccc3)cc2)nc2ccccc21` [Compound 5k, N1-[1,4′-Phenyl]benzoyl-N5-(2-fluoro-1-iminoethyl)-1-(1-isopropyl-benzo[d]imidazol-2-yl)-L-ornithine], in test [1], the kinact/KI is 0.333 M⁻¹ s⁻¹ and the “Fold PAD4 Selectivity” value is listed as 1.0 fold. For the same compound, in test [2], the kinact/KI was 11.3 M⁻¹ s⁻¹ and the “Fold PAD2 Selectivity” value was 34 fold. In addition, in test [3], the kinact/KI is 0.333 M⁻¹ s⁻¹ and the “Fold PAD1 Selectivity” value came out at 1.0 fold. Further, in test [4], the kinact/KI was 28.3 M⁻¹ s⁻¹ and the “Fold PAD3 Selectivity” value amounted to 85 fold.
